Read-outs that look alike come from different tables or passages of the source.
What was measured:
Assay type in all cases: cell-based
VCaP cells = experiment: VCaP cell proliferation inhibition experiment (CellTiter-Glo); settings: Homo sapiens, 168 h
Method: After centrifugation and resuspension, viable cell counting was performed using a Vi-Cell XR cell counter. […] Then, 180 µl of the cell suspension was added per well to a 96-well cell culture plate at a cell density of 7,500 cells/well. At the time of seeding, T0 wells were also prepared. The following day, R1881 at a final concentration of 0.1 nM and compounds at various concentrations were added. The plate was placed back into the incubator and cultured for an additional 7 days. At the time of compound addition, the T0 plate was measured using the CellTiter-Glo (CTG) kit (Promega, Cat. No. G7572) and recorded as RLU0. Following incubation, 75 µl of pre-thawed and room temperature-equilibrated CellTiter-Glo solution was added to each well. […] The results were processed according to Equation (2). […] Growth% = (RLUcompound−RLU0)/(RLUcontrol−RLU0) × 100% [formula]

AR protein = molecular target: T1, AR protein (Homo sapiens, UniProt P10275); experiment: Detection of AR degradation in VCaP cells (automated western blot); settings: for DC50: degradation of AR protein in VCaP cells, 24 hours incubation, read-out: DC50; for Degradation rate %: AR protein in VCaP cells, concentration of 30 nM, 24 hours
T1 construct: VCap is a human prostate cancer cell line purchased from ATCC; host or cells: VCaP human prostate cancer cells
T1 sequence (P10275 1-920): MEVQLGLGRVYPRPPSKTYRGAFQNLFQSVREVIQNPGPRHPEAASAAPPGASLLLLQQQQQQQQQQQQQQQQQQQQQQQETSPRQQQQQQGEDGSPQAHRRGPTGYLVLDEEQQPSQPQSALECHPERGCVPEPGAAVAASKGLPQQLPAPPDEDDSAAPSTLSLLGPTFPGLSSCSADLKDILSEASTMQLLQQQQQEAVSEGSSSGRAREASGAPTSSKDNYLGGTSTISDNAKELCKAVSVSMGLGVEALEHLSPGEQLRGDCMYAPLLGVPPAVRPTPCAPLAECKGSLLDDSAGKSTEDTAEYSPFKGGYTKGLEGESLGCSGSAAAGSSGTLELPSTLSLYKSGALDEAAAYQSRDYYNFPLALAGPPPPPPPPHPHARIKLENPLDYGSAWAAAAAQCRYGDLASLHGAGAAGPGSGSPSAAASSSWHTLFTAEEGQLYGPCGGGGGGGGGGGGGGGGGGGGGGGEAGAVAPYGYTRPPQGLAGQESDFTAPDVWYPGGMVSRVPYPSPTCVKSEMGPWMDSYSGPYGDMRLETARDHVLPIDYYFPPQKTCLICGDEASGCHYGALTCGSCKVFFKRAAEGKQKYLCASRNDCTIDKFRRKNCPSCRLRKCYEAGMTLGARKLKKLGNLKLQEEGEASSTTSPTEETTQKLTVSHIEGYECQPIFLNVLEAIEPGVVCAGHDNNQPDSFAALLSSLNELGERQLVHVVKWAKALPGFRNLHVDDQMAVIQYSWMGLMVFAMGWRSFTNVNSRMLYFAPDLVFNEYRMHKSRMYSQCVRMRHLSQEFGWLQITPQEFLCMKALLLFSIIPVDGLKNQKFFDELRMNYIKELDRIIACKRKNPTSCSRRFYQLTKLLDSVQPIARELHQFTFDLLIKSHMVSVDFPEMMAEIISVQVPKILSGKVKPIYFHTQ
Method: VCap is a human prostate cancer cell line purchased from ATCC and cultured under the following conditions: DMEM + 10% FBS + 1% penicillin-streptomycin solution. The cells were cultured in a 37°C, 5% CO2 incubator. The cells were seeded in a 6-well plate, with 5 × 10^5 cells/well. After seeding, compounds at various concentrations were added, and the plate was incubated for 24 hours in the 37°C, 5% CO2 incubator. Following incubation, the cells were harvested and RIPA lysis buffer (beyotime, Cat. P0013B) was added. The cells were lysed on ice for 15 minutes and centrifuged at 12,000 rpm at 4°C for 10 minutes. The supernatant protein samples were collected and the protein was quantified using the BCA kit (Beyotime, Cat. P0009). Then the protein was diluted to 0.25 mg/mL. The expressions of AR (CST, Cat.5153S) and the internal reference β-actin (CST, Cat. 3700S) were detected using a fully automated western blot quantitative analyser (Proteinsimple). Using the "Compass for SW" software, the relative peak area of AR was calculated when the internal reference area was 10,000. The proportion of AR relative to the solvent control group at various drug concentrations was calculated according to Equation (1), where ARtreat represents the relative peak area of the compound-treated group, and ARsolvent represents the relative peak area of the solvent control group. The processed data obtained from Equation (1) were analysed using GraphPad Prism 8.3.0 software, and the DC50 value was calculated using a four-parameter nonlinear regression model. The degradation rate at a specified concentration was determined as 100-AR%. AR% = ARtreat/ ARsolvent × 100% [formula]

hERG potassium channel = molecular target: T2, hERG potassium channel (Homo sapiens, UniProt Q12809); experiment: hERG potassium ion channel test (manual patch-clamp, CHO cells)
T2 construct: expressed in transfected cells; host or cells: CHO cells stably expressing hERG
T2 sequence (Q12809 whole entry): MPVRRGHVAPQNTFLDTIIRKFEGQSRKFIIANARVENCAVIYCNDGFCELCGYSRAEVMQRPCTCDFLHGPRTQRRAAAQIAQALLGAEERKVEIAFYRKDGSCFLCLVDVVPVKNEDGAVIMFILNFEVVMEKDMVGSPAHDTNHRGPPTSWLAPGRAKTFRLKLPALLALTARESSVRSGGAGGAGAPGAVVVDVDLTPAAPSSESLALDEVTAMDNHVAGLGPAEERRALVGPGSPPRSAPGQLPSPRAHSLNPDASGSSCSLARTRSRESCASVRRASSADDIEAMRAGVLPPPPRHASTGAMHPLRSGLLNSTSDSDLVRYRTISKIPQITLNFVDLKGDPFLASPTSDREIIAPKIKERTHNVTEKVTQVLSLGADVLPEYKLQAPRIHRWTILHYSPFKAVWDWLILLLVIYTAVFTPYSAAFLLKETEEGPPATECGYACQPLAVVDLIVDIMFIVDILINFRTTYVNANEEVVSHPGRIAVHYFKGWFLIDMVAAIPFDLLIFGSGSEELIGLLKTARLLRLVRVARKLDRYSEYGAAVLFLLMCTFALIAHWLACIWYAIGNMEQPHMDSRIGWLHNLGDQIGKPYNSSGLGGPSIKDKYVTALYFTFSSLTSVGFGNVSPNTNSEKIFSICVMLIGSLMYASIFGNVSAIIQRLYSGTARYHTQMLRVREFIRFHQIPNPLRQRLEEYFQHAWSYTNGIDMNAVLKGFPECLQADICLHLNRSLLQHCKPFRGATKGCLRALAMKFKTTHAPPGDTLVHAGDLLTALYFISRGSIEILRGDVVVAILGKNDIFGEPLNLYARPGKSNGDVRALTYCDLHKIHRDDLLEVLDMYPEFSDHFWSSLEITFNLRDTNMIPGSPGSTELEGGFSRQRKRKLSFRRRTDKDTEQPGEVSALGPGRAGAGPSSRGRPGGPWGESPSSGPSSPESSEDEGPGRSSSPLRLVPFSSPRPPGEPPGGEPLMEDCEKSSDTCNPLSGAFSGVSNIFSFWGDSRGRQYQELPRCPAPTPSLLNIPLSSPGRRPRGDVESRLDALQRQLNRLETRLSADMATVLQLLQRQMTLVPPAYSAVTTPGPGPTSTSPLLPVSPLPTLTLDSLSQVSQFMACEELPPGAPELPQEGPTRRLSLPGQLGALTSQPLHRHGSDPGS
Text: Experimental platform: Electrophysiological manual patch-clamp system
Cell line: Chinese hamster ovary (CHO) cell lines stably expressing hERG potassium ion channel
Experimental method: In Chinese Hamster Ovary (CHO) cells stably expressing hERG potassium channel, whole cell patch-clamp technique was used to record hERG potassium channel current at room temperature. The glass microelectrode was made of a glass electrode blank (BF150-86-10, Sutter) by a puller. The tip resistance after filling the liquid in the electrode was about 2-5 MΩ. The glass microelectrode can be connected to the patch-clamp amplifier by inserting the glass microelectrode into an amplifier probe. The clamping voltage and data recording were controlled and recorded by the pClamp 10 software through a computer. The sampling frequency was 10 kHz, and the filtering frequency was 2 kHz. After the whole cell records were obtained, the cells were clamped at -80 mV, and the step voltage that induced the hERG potassium current (I hERG) was depolarised from -80 mV to +20 mV for 2 s, then repolarised to -50 mV, and returned to -80 mV after 1 s. This voltage stimulation was given every 10 s, and the administration process was started after the hERG potassium current was confirmed to be stable (at least 1 minute). The compound was administered for at least 1 minute at each test concentration, and at least 2 cells (n ≥ 2) were tested at each concentration.
Data processing: Data analysis processing was carried out by using pClamp 10, GraphPad Prism 5 and Excel software.
Compound IC50 was calculated using GraphPad Prism 5 software by fitting according to the following equation: Y = Bottom + (Top−Bottom)/(1+10^(∧)((LogIC50−X)*HillSlope)) [formula] where X represents the Log value of the tested concentration of the test sample, Y represents the inhibition percentage at the corresponding concentration, and Bottom and Top represent the minimum and maximum inhibition percentage, respectively.

[1] = chinese hamster, inhibitory activity against hERG potassium channel current, CHO cells, whole cell patch-clamp, read-out: IC50

GI50 (VCaP cells) | SMILES | DC50 (AR protein) | other results
 | COc1cc(O[C@H]2C(C)(C)[C@H](NC(=O)c3ccc(N4CCC(CN5CCN6c7cc(F)c(C8CCC(=O)NC8=O)cc7CC[C@@H]6C5)CC4)cc3)C2(C)C)ccc1C#N (some centres unmarked) [Trifluoroacetate of compound 2] | < 100 nM | IC50 (hERG potassium channel): > 40000 nM
< 300 nM | [2H]C([2H])([2H])Oc1cc(O[C@H]2C(C)(C)[C@H](NC(=O)c3ccc(N4CCC5(CC4)CC(N4CCN6c7cc(F)c(N8CCC(=O)NC8=O)cc7CC[C@@H]6C4)C5)cc3)C2(C)C)ccc1C#N [Compound 94] |  | 
< 300 nM | CC1(C)[C@H](NC(=O)c2ccc(N3CCC(CN4CCN5c6cc(F)c(C(=O)N[C@H]7CCC(=O)NC7=O)cc6CC[C@@H]5C4)CC3)cc2)C(C)(C)[C@H]1Oc1ccc(C#N)c(Cl)c1 [Compound 52] |  | 
 | COc1cc(O[C@H]2C(C)(C)[C@H](NC(=O)c3ccc(N4CCC(CN5CCN6c7cc(F)c(C(=O)NC8CCC(=O)NC8=O)cc7CC[C@H]6C5)CC4)cc3)C2(C)C)ccc1C#N (some centres unmarked) [Trifluoroacetate of compound 3] | < 100 nM | IC50 (hERG potassium channel; [1]): > 40000 nM
 | COc1cc(O[C@H]2C(C)(C)[C@H](NC(=O)c3ccc(N4CCC(CN5CCN6c7cc(F)c(C8CCC(=O)NC8=O)cc7CC[C@H]6C5)CC4)cc3)C2(C)C)ccc1C#N (some centres unmarked) [Trifluoroacetate of compound 1] | < 100 nM | IC50 (hERG potassium channel; chinese hamster, cho cells): > 40000 nM
< 300 nM | [2H]C([2H])([2H])Oc1cc(O[C@H]2C(C)(C)[C@H](NC(=O)c3ccc(N4CCC(CN5CCN6c7cc(F)c(C8CCC(=O)NC8=O)cc7CC[C@H]6C5)CC4)nn3)C2(C)C)ccc1C#N (some centres unmarked) [Compound 86] |  | 
 | CC1(C)[C@H](NC(=O)c2ccc(N3CCC(CN4CCN5c6cc(F)c(C(=O)N[C@H]7CCC(=O)NC7=O)cc6CC[C@H]5C4)CC3)cc2)C(C)(C)[C@H]1Oc1ccc(C#N)c2ncccc12 [Compound 35] | < 100 nM | IC50 (hERG potassium channel; [1]): > 40000 nM
 | CC1(C)[C@H](NC(=O)c2ccc(N3CCC(CN4CCN5c6cc(F)c(C7CCC(=O)NC7=O)cc6CC[C@H]5C4)CC3)cc2)C(C)(C)[C@H]1Oc1ccc(C#N)c(C2CC2)c1 (some centres unmarked) [Compound 118] |  | IC50 (hERG potassium channel; inhibitory activity against hERG potassium channel current, CHO cells, whole cell patch-clamp, read-out: IC50): > 40000 nM; Degradation rate % (AR protein): >70%
 | CC1(C)[C@H](NC(=O)c2ccc(N3CCC(CN4CCN5c6cc(F)c(C(=O)N[C@H]7CCC(=O)NC7=O)cc6CC[C@@H]5C4)CC3)cc2)C(C)(C)[C@H]1Oc1ccc(C#N)c2ncccc12 [Compound 34] | < 100 nM | IC50 (hERG potassium channel; [1]): > 40000 nM
 | COc1cc(O[C@H]2C(C)(C)[C@H](NC(=O)c3ccc(N4CCC(CN5CCN6c7cc(F)c(N8CCC(=O)NC8=O)cc7CC[C@@H]6C5)CC4)cc3)C2(C)C)ccc1C#N [Compound 28] |  | IC50 (hERG potassium channel): > 40000 nM
 | COc1cc(O[C@H]2C(C)(C)[C@H](NC(=O)c3ccc(N4CCC(CN5CCN6c7cc(F)c(C(=O)NC8CCC(=O)NC8=O)cc7CC[C@@H]6C5)CC4)cc3)C2(C)C)ccc1C#N (some centres unmarked) [Trifluoroacetate of compound 4] | < 100 nM | IC50 (hERG potassium channel; [1]): > 40000 nM
< 500 nM | [2H]C([2H])([2H])Oc1cc(O[C@H]2C(C)(C)[C@H](NC(=O)c3ccc(N4CCC(CN5CCN6c7cc(F)c(C(=O)N[C@H]8CCC(=O)NC8=O)cc7CC[C@@H]6C5)CC4)nn3)C2(C)C)ccc1C#N [Compound 87] |  | 
 | CC1(C)[C@H](NC(=O)c2ccc(N3CCC(CN4CCN5c6cc(F)c(C7CCC(=O)NC7=O)cc6CC[C@@H]5C4)CC3)cc2)C(C)(C)[C@H]1Oc1ccc(C#N)c(C2CC2)c1 (some centres unmarked) [Compound 117] |  | Degradation rate % (AR protein): >70%
 | CC1(C)[C@H](NC(=O)c2ccc(N3CCC4(CC3)CC(CN3CCN5c6cc(F)c(C7CCC(=O)NC7=O)cc6CC[C@H]5C3)C4)cc2)C(C)(C)[C@H]1Oc1ccc(C#N)c2ncccc12 (some centres unmarked) [Compound 73] | < 100 nM | IC50 (hERG potassium channel; [1]): > 40000 nM
 | COc1cc(O[C@H]2C(C)(C)[C@H](NC(=O)c3ccc(N4CCC(CN5CCN6c7ncc(C8CCC(=O)NC8=O)cc7CC[C@@H]6C5)CC4)cc3)C2(C)C)ccc1C#N (some centres unmarked) [Compound 93] |  | Degradation rate % (AR protein): >70%
 | CC1(C)[C@H](NC(=O)c2ccc(N3CCC(CN4CCN5c6cc(F)c(N7CCC(=O)NC7=O)cc6CC[C@@H]5C4)CC3)cc2)C(C)(C)[C@H]1Oc1ccc(C#N)c(Cl)c1 [Compound 50] | < 100 nM | 
 | CC1(C)[C@H](NC(=O)c2ccc(N3CCC4(CC3)CC(CN3CCN5c6cc(F)c(C7CCC(=O)NC7=O)cc6CC[C@@H]5C3)C4)cc2)C(C)(C)[C@H]1Oc1ccc(C#N)c(Cl)c1 (some centres unmarked) [Compound 54] | < 100 nM | 
 | [2H]C([2H])([2H])Oc1cc(O[C@H]2C(C)(C)[C@H](NC(=O)c3ccc(N4CCC5(CC4)CC(CN4CCN6c7cc(F)c(C8CCC(=O)NC8=O)cc7CC[C@@H]6C4)C5)cc3)C2(C)C)ccc1C#N (some centres unmarked) [Compound 42] | < 100 nM | 

SMILES | GI50 (VCaP cells) | DC50 (AR protein) | other results
[2H]C([2H])([2H])Oc1cc(O[C@H]2C(C)(C)[C@H](NC(=O)c3ccc(N4CCC(CN5CCN6c7cc(F)c(C(=O)N[C@H]8CCC(=O)NC8=O)cc7CC[C@@H]6C5)CC4)cc3)C2(C)C)ccc1C#N [Compound 40] | < 300 nM | < 100 nM | 
[2H]C([2H])([2H])Oc1cc(O[C@H]2C(C)(C)[C@H](NC(=O)c3ccc(N4CCC(CN5CCN6c7cc(F)c(C8CCC(=O)NC8=O)cc7CC[C@H]6C5)CC4)cc3)C2(C)C)ccc1C#N (some centres unmarked) [Compound 37] | < 300 nM | < 100 nM | 
CC1(C)[C@H](NC(=O)c2ccc(N3CCC(CN4CCN5c6cc(F)c(N7CCC(=O)NC7=O)cc6CC[C@H]5C4)CC3)cc2)C(C)(C)[C@H]1Oc1ccc(C#N)c2ncccc12 [Trifluoroacetate of compound 33] | < 500 nM | < 100 nM | 

Reference: EP4763845A1, “CYANO AROMATIC RING DERIVATIVE AND PHARMACEUTICAL USE THEREOF” (Haisco Pharmaceutical Group Co., Ltd., priority 2023, dated 2025)
